# Assay results from patent US20140303260A1, “PHARMACEUTICAL COMPOSITIONS OF RESVERATROL” (NAD Life Pty Ltd, priority 2011, published 2014).
# Legend:
# [1] = test system: blood NAD levels; assay: NAD levels in a test group of subjects after administration of resveratrol, buccal/sublingual composition versus oral; assay type: in vivo, human
# Method: A 35% increased blood NAD level was sustained at 4 hrs compared to baseline. […] The comparison of the effect on NAD levels between oral administration of resveratrol and buccal/sublingual membrane administration of resveratrol is best shown in FIG. 3. This graph depicts the difference in the change in a subject's NAD levels (in ng/mL) when resveratrol is administered orally (absorption through the gastrointestinal tract) compared to when resveratrol is administrated by the pharmaceutical composition of the present invention (absorption through the buccal/sublingual membranes).
# [2] = cited from earlier work
smiles,measurement,setting,value
Oc1ccc(C=Cc2cc(O)cc(O)c2)cc1 [resveratrol],increase in blood NAD levels,"[1]; absorption through buccal/sublingual membranes (FIG. 1), at 1 hr (60 min)",41%
same,increased blood NAD level sustained compared to baseline,"[1]; absorption through buccal/sublingual membranes, at 4 hrs",35%
same,change in blood NAD levels,[1]; delivered via powdered slurry (gastrointestinal absorption alone),No observable change
same,level of NAD after oral administration,"[1]; oral, absorbed through the gastrointestinal tract (FIG. 2), in only some of the people in the group",only a mild increase
same,solubility in aqueous solutions,[2],almost insoluble
